Results taken from patent US5652222A, “Selective inhibition of leukemic cell proliferation by bcr-abl antisense oligonucleotides” (Temple University-of The Commonwealth System of Higher …, priority 1993, dated 1997).
Entries after “also recorded” stand apart in the source; their conditions may differ.

Columns and labels:
[1] = tested on: CML chronic phase; conditions: cited from earlier work; for control of the excessive granulopoiesis of CML: human, in vivo; for median survival: standard approach to treatment of CML chronic phase
[2] = tested on: nucleic acid synthesis in both normal and leukemic cells; conditions: cited from earlier work
[3] = tested on: chronic phase CML; conditions: cited from earlier work
[4] = tested on: cells of CML patients in blast crisis, K-28 (b3a2) type junction; assay: Colony formation of CML blast crisis patient cells expressing the b3a2 (K-28) junction; type: cell-based, human; conditions: for Number of Colonies, Antisense-treated: conditions of Example 1
Text: To identify CML blast crisis patients carrying the second common type junction, in which bcr exon 3 is juxtaposed to c-abl exon 2, total RNA derived from cells of CML patients in blast crisis was reverse-transcribedwith synthetic primers. The 3' primer (SEQ ID NO:10) was complementary to 22 nucleotides of c-abl. exon 2. The 5' primer was the 22-mer GTCATCGTCCACTCAGCCACTG (SEQ ID NO:12) complementary to 22 nucleotides of bcr exon 3. The RNA was amplified by polymerase chain reaction according to Example 1. The amplification products were then hybridized with the synthetic 18-mer oligonucleotide GAAGGGCTTT TGAACTCT (SEQ ID NO:6), which is complementary to the b3a2 junction. After cloning of breakpoints in two patients, sequence analysis of several clones identified the b3a2 junction as precisely corresponding to the K-28 breakpoint shown in FIG. 3. (SEQ ID NO:4).
Utilizing the culture condition and oligomer treatment conditions of Example 1, cells were exposed to either no oligomer (FIG. 4A), the 18-nucleotide synthetic oligomer GAAGTGCTGT TGAACTCT (SEQ ID NO:5) partially complementary to the b3a2 junction, containing 9 nucleotides corresponding to bcr and 9 nucleotides corresponding to c-abl but with two mismatches (FIG. 4B); or the 18-nucleotide synthetic oligomer GAAGGGCTTT TGAACTCT (SEQ ID NO:6) completely complementary to the same bcr-abl junction (FIG. 4C).

[5] = tested on: BV173 cells (b2/a2); assay: Proliferation of BV173 cells expressing b2a2 junction; type: cell-based, human; conditions: in comparison to untreated control cells (FIG. 7)
Experimental: Amplification of the bcr-abl junction with a 5' primer corresponding to bcr exon 2, and a 3' primer corresponding to abl exon 2, followed by hybridization to an 18-mer specific for the b2/a2 or the b3/a2 junction identified the b2/a2 breakpoint in these cells (data not shown).
The sensitivity of the BV173 cells to b2/a2 antisense phosphorothioate oligodeoxynucleotides was assessed. Phosphorothioate oligodeoxynucleotides were prepared on either an Applied Biosystems Model 380B or 390Z Automated Synthesis instrument using conventional phosphoramidite monomers and manufacturer-recommended procedures, which included substitution of tetraethylthiuran (or an equivalent sulfur-donor reagent) for iodine-water-pyridine, […] reversed-phase preparative chromatography, detritylation, and obtaining the final product in the form of its sodium salt, all according to previously published methodology: Zon and Stec, in Oligonucleotides and Analogues A Practical Approach, F. Eckstein, Ed. (Oxford Univerisity Press, Oxford 1991), pp. 87-108; Zon and Geiser, Anti-Cancer Drug Design 6, 539 (1991); Vu and Hirschenbein, Tetrahedron Lett. 32, 3005-3008 (1991).
BV173 cells were cultured in the presence of phosphorothioate b2/a2 antisense 26-mer CGCTGAAGGG CTTCTTCCT ATTGAT (SEQ ID NO:29), the phosphorothioate sense sequence ATCAATAAGGAAGCCCTTCAGCG (SEQUENCE ID NO:34), or the b3/a2 (SEQ ID NO:31) or b1/a2 (SEQ ID N0:33) phosphorothioate antisense 26-mer. […] The sense oligomer SEQ ID NO:34 gave no inhibition (FIG. 7, -.largecircle.-) in comparison to untreated control cells (FIG. 7, -.quadrature.-).

[6] = alpha-interferon treated CML patients

In the case of `CS(=O)(=O)OCCCCOS(C)(=O)=O` [busulfan], the “control of the excessive granulopoiesis of CML” value [1] is listed as “useful in the control of the excessive granulopoiesis of CML”, the median survival [1] is listed as “about 47 months” and the “inhibition of nucleic acid synthesis” value [2] is listed as “inhibit nucleic acid synthesis in both normal and leukemic cells; also recorded: inhibit nucleic acid synthesis both in normal and leukemic cells”.
In the case of `NC(=O)NO` [hydroxyurea], the “control of the excessive granulopoiesis of CML” value [1] is given as “useful in the control of the excessive granulopoiesis of CML”, the median survival [1] is given as “about 47 months” and the “inhibition of nucleic acid synthesis” value [2] is given as “inhibit nucleic acid synthesis in both normal and leukemic cells; also recorded: inhibit nucleic acid synthesis both in normal and leukemic cells”.
In the case of Alpha-interferon, the “patients with normalization of the blood count” value ([3]; 3-9 million units intramuscularly each day, chronic phase CML) is listed as “about three quarters”, the side effects ([3]; CML patients) is listed as “fever, anorexia, muscle and bone pain, depression, and often immune thrombocytopenia” and the “patients with a decrease in Ph1-chromosome-containing metaphases” value [3, 6] is listed as “more than one third”. For the same compound, the “treated patients having fewer than 5% Ph1-positive cells” value [3, 6] was “about 15%” and the “specificity of effect on leukemic clone” value ([3]; human, in vivo) was “non-specific, as indicated by the persistence of Ph^1 leukemic cells and the inhibition of normal hematopoietic cell growth”.
In the case of “SEQ ID NO:6: 18-nucleotide synthetic oligomer GAAGGGCTTT TGAACTCT completely complementary to the b3a2 (K-28) junction (antisense GAAGGGCTTTTGAACTCT; further chemistry not given here)”, the “Number of Colonies, Antisense-treated” value ([4]; Table 2, patient 1, untreated 278 ± 28) is reported as 102 ± 14 colonies, the “Number of Colonies, Antisense-treated” value ([4]; Table 2, patient 2, untreated 182 ± 18) is reported as 68 ± 12 colonies and the “% Inhibition” value ([4]; Table 2, patient 2, number of colonies vs untreated) is reported as 63%.
With “SEQ ID NO:31: b3/a2 phosphorothioate antisense 26-mer CGCTGAAGGGCTT TTGAA&TCTGCTT (antisense CGCTGAAGGGCTTTTGAACTCTGCTT; all phosphorothioate, sugars by position and methylation of C not given here)” the “inhibition of proliferation of BV173 cells” value [5] was “Only the b2/a2 antisense oligodeoxynucleotide inhibited the proliferation of BV173 cells”.
For “SEQ ID NO:33: b1/a2 phosphorothioate antisense 26-mer CGCTGAAGGGCTT CTGCGTCTCCATG (antisense CGCTGAAGGGCTTCTGCGTCTCCATG; all phosphorothioate, sugars by position and methylation of C not given here)”, the “inhibition of proliferation of BV173 cells” value [5] was “Only the b2/a2 antisense oligodeoxynucleotide inhibited the proliferation of BV173 cells”.
